Source: ChEMBL document CHEMBL1201862, “PubChem BioAssay data set” (2004)
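96-well plates; 48 h exposure; 5 concentrations. Endpoints by linear interpolation between flanking doses. Not reached: highest tested concentration assigned. GI50 marks 50% less growth.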 Calls of active or inactive are those of the source. Rule as the data show it: active = GI50 up to about 1.1 µM and inactive = higher.

Legend:
Assay in all cases: NCI anticancer screen, dose series, 48 h
SK-MEL-28 = tested on: SK-MEL-28
HOP-92 = tested on: HOP-92
TK-10 = tested on: TK-10
MOLT-4 = tested on: MOLT-4
HL-60 = tested on: HL-60
NCI-H522 = tested on: NCI-H522
NCI-H226 = tested on: NCI-H226
SK-OV-3 = tested on: SK-OV-3
M14 = tested on: M14
SNB-78 = tested on: SNB-78
A549 = tested on: A549
A498 = tested on: A498
SF-268 = tested on: SF-268
RXF 393 = tested on: RXF 393
CCRF-CEM = tested on: CCRF-CEM
IGROV-1 = tested on: IGROV-1
SR = tested on: SR
UO-31 = tested on: UO-31
EKVX = tested on: EKVX
U-251 = tested on: U-251
K562 = tested on: K562
M19-MEL = tested on: M19-MEL
NCI-H460 = tested on: NCI-H460
NCI-H23 = tested on: NCI-H23
SNB-19 = tested on: SNB-19
OVCAR-5 = tested on: OVCAR-5
UACC-62 = tested on: UACC-62
DMS-273 = tested on: DMS-273
HOP-62 = tested on: HOP-62
HT-29 = tested on: HT-29
KM12 = tested on: KM12
ACHN = tested on: ACHN
PC-3 = tested on: PC-3
MDA-MB-435 = tested on: MDA-MB-435
OVCAR-8 = tested on: OVCAR-8
NCI/ADR-RES = tested on: NCI/ADR-RES
SW-620 = tested on: SW-620
OVCAR-3 = tested on: OVCAR-3
SK-MEL-5 = tested on: SK-MEL-5
SNB-75 = tested on: SNB-75
SF-539 = tested on: SF-539
BT-549 = tested on: BT-549
HCC 2998 = tested on: HCC 2998
COLO 205 = tested on: COLO 205
MDA-MB-231 = tested on: MDA-MB-231
Malme-3M = tested on: Malme-3M
SN12C = tested on: SN12C
MDA-N = tested on: MDA-N
Hs-578T = tested on: Hs-578T
HCT-116 = tested on: HCT-116
OVCAR-4 = tested on: OVCAR-4
CAKI-1 = tested on: CAKI-1
T47D = tested on: T47D
786-0 = tested on: 786-0
SK-MEL-2 = tested on: SK-MEL-2
UACC-257 = tested on: UACC-257
HCT-15 = tested on: HCT-15
RPMI-8226 = tested on: RPMI-8226
DU-145 = tested on: DU-145
MCF7 = tested on: MCF7
SF-295 = tested on: SF-295
LOX IMVI = tested on: LOX IMVI

For `N#CC1Sc2ccccc2-n2cccc21` (centres undefined), the GI50 (SK-MEL-28) was > 100000 nM (inactive), the GI50 (HOP-92) was 42600 nM (inactive) and the GI50 (TK-10) was 80000 nM (inactive). The GI50 (MOLT-4) was 58900 nM (inactive), the GI50 (HL-60) was 22800 nM (inactive) and the GI50 (NCI-H522) was 36100 nM (inactive). For the same compound, the GI50 (NCI-H226) was 4980 nM (inactive), the GI50 (SK-OV-3) was 67300 nM (inactive) and the GI50 (M14) was > 100000 nM (inactive). For the same compound, the GI50 (SNB-78) was 34700 nM (inactive), the GI50 (A549) was 45000 nM (inactive) and the GI50 (A498) was 67600 nM (inactive). The GI50 (SF-268) was 25100 nM (inactive), the GI50 (RXF 393) was 23200 nM (inactive) and the GI50 (CCRF-CEM) was 70800 nM (inactive). For the same compound, the GI50 (IGROV-1) was > 100000 nM (inactive), the GI50 (SR) was 37600 nM (inactive) and the GI50 (UO-31) was 25400 nM (inactive). The GI50 (EKVX) was 61200 nM (inactive), the GI50 (U-251) was > 100000 nM (inactive) and the GI50 (K562) was 26700 nM (inactive). For the same compound, the GI50 (M19-MEL) was > 100000 nM (inactive), the GI50 (NCI-H460) was > 100000 nM (inactive) and the GI50 (NCI-H23) was 63700 nM (inactive). For the same compound, the GI50 (SNB-19) was > 100000 nM (inactive), the GI50 (OVCAR-5) was 24300 nM (inactive) and the GI50 (UACC-62) was 30300 nM (inactive). For the same compound, the GI50 (DMS-273) was 44000 nM (inactive), the GI50 (HOP-62) was > 100000 nM (inactive) and the GI50 (HT-29) was > 100000 nM (inactive). For the same compound, the GI50 (KM12) was 85700 nM (inactive).

`O=C1C=CC(=O)c2c1ccc1c3ccccc3n(-c3cccc([N+](=O)[O-])c3)c21` was tested, and the GI50 (ACHN) was 1700 nM (inactive), the GI50 (SK-MEL-28) was 2840 nM (inactive) and the GI50 (PC-3) was > 8300 nM (inactive). For the same compound, the GI50 (MDA-MB-435) was 2050 nM (inactive), the GI50 (OVCAR-8) was 2830 nM (inactive) and the GI50 (NCI/ADR-RES) was > 5580 nM (inactive). For the same compound, the GI50 (SW-620) was 804 nM (active), the GI50 (OVCAR-3) was 2130 nM (inactive) and the GI50 (HOP-92) was 2090 nM (inactive). For the same compound, the GI50 (TK-10) was 2240 nM (inactive), the GI50 (SK-MEL-5) was 5570 nM (inactive) and the GI50 (MOLT-4) was 355 nM (active). The GI50 (HL-60) was 474 nM (active), the GI50 (NCI-H522) was 1910 nM (inactive) and the GI50 (NCI-H226) was > 10000 nM (inactive). For the same compound, the GI50 (SNB-75) was > 10000 nM (inactive), the GI50 (SF-539) was > 5050 nM (inactive) and the GI50 (SK-OV-3) was > 10000 nM (inactive). For the same compound, the GI50 (BT-549) was 1690 nM (inactive), the GI50 (HCC 2998) was > 10000 nM (inactive) and the GI50 (COLO 205) was 1420 nM (inactive). For the same compound, the GI50 (M14) was 1730 nM (inactive), the GI50 (MDA-MB-231) was 2720 nM (inactive) and the GI50 (Malme-3M) was 1980 nM (inactive). The GI50 (A549) was > 10000 nM (inactive), the GI50 (A498) was 5850 nM (inactive) and the GI50 (SN12C) was 3960 nM (inactive). For the same compound, the GI50 (SF-268) was 5660 nM (inactive), the GI50 (RXF 393) was 2380 nM (inactive) and the GI50 (MDA-N) was 2200 nM (inactive). The GI50 (CCRF-CEM) was 357 nM (active), the GI50 (IGROV-1) was 5810 nM (inactive) and the GI50 (Hs-578T) was 3760 nM (inactive). The GI50 (SR) was 412 nM (active), the GI50 (UO-31) was 2400 nM (inactive) and the GI50 (HCT-116) was 1920 nM (inactive). For the same compound, the GI50 (EKVX) was > 5450 nM (inactive), the GI50 (OVCAR-4) was 2810 nM (inactive) and the GI50 (U-251) was 9710 nM (inactive). The GI50 (CAKI-1) was 2550 nM (inactive), the GI50 (K562) was 367 nM (active) and the GI50 (T47D) was 2380 nM (inactive). For the same compound, the GI50 (786-0) was 1910 nM (inactive), the GI50 (SK-MEL-2) was > 10000 nM (inactive) and the GI50 (UACC-257) was 2620 nM (inactive). The GI50 (NCI-H460) was > 10000 nM (inactive), the GI50 (NCI-H23) was 2650 nM (inactive) and the GI50 (SNB-19) was > 10000 nM (inactive). The GI50 (HCT-15) was 2590 nM, the GI50 (OVCAR-5) was > 10000 nM (inactive) and the GI50 (RPMI-8226) was 1000 nM (active). For the same compound, the GI50 (UACC-62) was 2130 nM (inactive), the GI50 (DU-145) was > 10000 nM (inactive) and the GI50 (HOP-62) was > 10000 nM (inactive). The GI50 (MCF7) was 2290 nM (inactive), the GI50 (HT-29) was > 10000 nM (inactive) and the GI50 (SF-295) was > 10000 nM (inactive). The GI50 (LOX IMVI) was > 10000 nM (inactive) and the GI50 (KM12) was > 7980 nM (inactive).

`CC[C@@]1(O)C(=O)OCc2c1cc1n(c2=O)Cc2c-1nc1ccc(N)cc1c2CC[Si](C)(C)C` was tested, and the GI50 (ACHN) was < 10 nM (active), the GI50 (SK-MEL-28) was 22.7 nM (active) and the GI50 (PC-3) was < 22.9 nM (active). For the same compound, the GI50 (MDA-MB-435) was < 10 nM (active), the GI50 (OVCAR-8) was < 10 nM (active) and the GI50 (NCI/ADR-RES) was < 10 nM (active). The GI50 (SW-620) was < 10 nM (active), the GI50 (OVCAR-3) was < 18.8 nM (active) and the GI50 (HOP-92) was < 25 nM (active). The GI50 (TK-10) was 51 nM (active), the GI50 (SK-MEL-5) was < 10 nM (active) and the GI50 (MOLT-4) was < 10 nM (active). For the same compound, the GI50 (HL-60) was < 10 nM (active), the GI50 (NCI-H522) was < 10 nM (active) and the GI50 (NCI-H226) was < 10 nM (active). The GI50 (SNB-75) was < 10 nM (active), the GI50 (SF-539) was < 10 nM (active) and the GI50 (SK-OV-3) was < 10 nM (active). For the same compound, the GI50 (BT-549) was < 10 nM (active), the GI50 (HCC 2998) was < 11.1 nM (active) and the GI50 (COLO 205) was < 16.4 nM (active). For the same compound, the GI50 (M14) was < 10 nM (active), the GI50 (MDA-MB-231) was < 36.3 nM (active) and the GI50 (Malme-3M) was < 11.5 nM (active). The GI50 (A549) was < 10 nM (active), the GI50 (A498) was < 10 nM (active) and the GI50 (SN12C) was < 10 nM (active). The GI50 (SF-268) was < 10 nM (active), the GI50 (RXF 393) was < 10 nM (active) and the GI50 (MDA-N) was < 10 nM (active). For the same compound, the GI50 (CCRF-CEM) was < 10 nM (active), the GI50 (IGROV-1) was < 10 nM (active) and the GI50 (Hs-578T) was 134 nM (active). The GI50 (SR) was < 10 nM (active), the GI50 (UO-31) was < 10 nM (active) and the GI50 (HCT-116) was < 10 nM (active). For the same compound, the GI50 (EKVX) was < 21.2 nM (active), the GI50 (OVCAR-4) was 15 nM (active) and the GI50 (U-251) was < 10 nM (active). The GI50 (CAKI-1) was < 10 nM (active), the GI50 (K562) was < 10 nM (active) and the GI50 (T47D) was < 10 nM (active). The GI50 (786-0) was < 10 nM (active), the GI50 (SK-MEL-2) was 40.9 nM (active) and the GI50 (UACC-257) was < 10 nM (active). The GI50 (NCI-H460) was < 10 nM (active), the GI50 (NCI-H23) was < 10 nM (active) and the GI50 (SNB-19) was < 10 nM (active). For the same compound, the GI50 (HCT-15) was 15.3 nM, the GI50 (OVCAR-5) was < 22.3 nM (active) and the GI50 (RPMI-8226) was < 10 nM (active). For the same compound, the GI50 (UACC-62) was < 10 nM (active), the GI50 (DU-145) was < 10 nM (active) and the GI50 (HOP-62) was < 10 nM (active). The GI50 (MCF7) was < 10 nM (active), the GI50 (HT-29) was < 10 nM (active) and the GI50 (SF-295) was < 10 nM (active). For the same compound, the GI50 (LOX IMVI) was < 10 nM (active) and the GI50 (KM12) was 15.5 nM (active).
